In test [1] the test system is S. intermedius Animal (1051997). Kind of test: MIC determination, S. intermedius animal (1051997). The note with it: Staphylococcus intermedius; Gram-positive; Mueller-Hinton medium, 24 h at 37° C. The test is classed as cell-based. The essentials:
(§1)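 Broth microdilution in Mueller-Hinton medium; compounds from 5 mg/mL stock in DMSO/methanol (50/50), twofold serial dilutions, inoculum adjusted to OD 0.01. Plates incubated 24 h at 37 °C, humid atmosphere; OD read at 620 nm to derive MIC, duplicates.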

Test [2] relates to C. albicans. The test can be described thus: Antifungal activity, cascade microdilution. The format is cell-based. The note with it: Candida albicans, 24 h, read-out: IC50 (μg/mL) C. albicans.
Test [3] deals with S. aureus Human ATCC 25923. The test can be described thus: MIC determination, S. aureus human ATCC 25923. The following applies: Staphylococcus aureus, ATCC25923; Gram-positive; Mueller-Hinton medium, 24 h at 37° C. The test is classed as cell-based. The essentials: as §1
Test [4] has as its system E. coli Animal (1956). The test can be described thus: MIC determination, E. coli animal (1956). The format is cell-based. The following applies: Escherichia coli; Gram-negative; Mueller-Hinton medium, 24 h at 37° C. An outline of the steps: as §1
The subject of test [5] is E. coli Human ATCC 28922. Kind of test: MIC determination, E. coli human ATCC 28922. The test is classed as cell-based. The following applies: Escherichia coli, ATCC28922; Gram-negative; Mueller-Hinton medium, 24 h at 37° C. An outline of the steps: as §1
The subject of test [6] is P. aeruginosa Animal (1051575). The test can be described thus: MIC determination, P. aeruginosa animal (1051575). The format is cell-based. The note with it: Pseudomonas aeruginosa; Gram-negative; Mueller-Hinton medium, 24 h at 37° C. The essentials: as §1
Test [7] deals with E. faecalis Human ATCC 29212. The test can be described thus: MIC determination, E. faecalis human ATCC 29212. The following applies: Enterococcus faecalis, ATCC29212; Gram-positive; Mueller-Hinton medium, 24 h at 37° C. The format is cell-based. An outline of the steps:
as §1

Test [8] concerns P. aeruginosa (1051575). Kind of test: Potentiation of doxycycline activity (combination MIC). The format is cell-based, Pseudomonas aeruginosa. The following applies: in presence of doxycycline 2 μg/mL; 24 hours at 37° C.
For test [9], the system named is P. aeruginosa Human ATCC 27853. The test can be described thus: MIC determination, P. aeruginosa human ATCC 27853. The test is classed as cell-based. The note with it: Pseudomonas aeruginosa, ATCC27853; Gram-negative; Mueller-Hinton medium, 24 h at 37° C. The essentials: as §1
Test [10] has as its system S. aureus Animal (340). Kind of test: MIC determination, S. aureus animal (340). The test is classed as cell-based. The following applies: Staphylococcus aureus; Gram-positive; Mueller-Hinton medium, 24 h at 37° C. The essentials: as §1
Test [11] deals with CHO-K1 cells. The test can be described thus: WST1 cytotoxicity test on CHO-K1 cells. The test is classed as cell-based, Chinese hamster. The following applies: Cricetulus griseus. An outline of the steps: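 CHO-K1 cells pre-grown 24 h, then exposed to increasing compound concentrations in duplicate for 24 h at 37° C, 5% CO2. Viability read after 20 min with 10% WST-1 in PBS at 450 nm; IC50 from nonlinear regression as concentration cutting viability 50%.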
Background: Tetrazolium assays rely on reduction of a dye to a coloured formazan, in cell work by metabolically active cells.

Setting [12] is: CHO-K1, 24 h, read-out: IC50 (μg/mL) CHO.
Setting [13] is: CHO-K1, read-out: IC50 (μg/mL) CHO.

We go through six compounds from patent US10780101B2, “Amide derivatives of squalamine for the treatment of infections” (VIRBAC, priority 2016, dated 2020).

Converted amounts (≈) assume the structure as drawn. Where two headings read alike, the source gives them in different places.

Usually MIC stands for the lowest concentration that inhibits growth of the organism. A lower MIC goes with inhibition by little substance. Take `C[C@H](CCC(=O)NC1CCCCC1)[C@H]1CCC2C3C(CC[C@@]21C)[C@@]1(C)CC[C@H](NCCCN(CCCN)CCCN)CC1C[C@H]3O` (stereo partly drawn) [(47), 3β-(tris(3-aminopropyl)amine)-N-cyclohexylchenodeoxycholamide]: the minimal inhibitory concentration (MIC) in test [1] was 8 µg/mL (≈ 12.4 µM); in test [3], 4 µg/mL (≈ 6.21 µM); in test [4] it was 32 µg/mL (≈ 49.7 µM); in test [5] it was 130 µg/mL (≈ 202 µM); in test [6], 32 µg/mL (≈ 49.7 µM); in test [7], 8 µg/mL (≈ 12.4 µM). For the same compound, the values for the MIC in test [9] and in test [10] were 130 µg/mL (≈ 202 µM) and 8 µg/mL (≈ 12.4 µM), respectively. In [2], the IC50 turned out to be 2 µg/mL (≈ 3.11 µM). The “MIC - P. aeruginosa (1051575): content of compound of formula (I) to restore the doxycycline activity (at 2 μg/mL)” value (from here on “MIC - P. aeruginosa (1051575): content”) in test [8] amounted to 2 µg/mL.
With `CC(C)NC(=O)CC[C@@H](C)[C@H]1CCC2C3C(CC[C@@]21C)[C@@]1(C)CC[C@H](NCCCNCCCCN)CC1C[C@H]3O` (stereo partly drawn) [(52), 3β-spermidino-N-isopropylchenodeoxycholamide], the MIC was 2 µg/mL (≈ 3.57 µM) in test [1]; 7 µg/mL (≈ 12.5 µM) in [3]; 28 µg/mL (≈ 49.9 µM) in test [4]; 112 µg/mL (≈ 200 µM) in test [5]; 112 µg/mL (≈ 200 µM) in test [6]; 14 µg/mL (≈ 25 µM) in test [7]. Moreover, the minimum inhibitory concentration (MIC) in [9] was found to be 56 µg/mL (≈ 99.8 µM); in test [10] it was 4 µg/mL (≈ 7.13 µM). The figures for the IC50 in [2], in test [11] (setting [12]) and in [11] (setting [13]) were 4 µg/mL (≈ 7.13 µM), 80 µg/mL (≈ 143 µM) and 48 µg/mL (≈ 85.6 µM), respectively. The “MIC - P. aeruginosa (1051575): content” value in test [8] amounted to 3.5 µg/mL.
As to `CC(C)N(C(=O)CC[C@@H](C)[C@H]1CCC2C3C(CC[C@@]21C)[C@@]1(C)CC[C@H](NCCCN(CCCN)CCCN)CC1C[C@H]3O)C(C)C` (stereo partly drawn) [(56), 3β-(tris(3-aminopropyl)amine)-N,N-diisopropylchenodeoxycholamide], the MIC in test [1] is 4 µg/mL (≈ 6.19 µM); in test [3] it was 4 µg/mL (≈ 6.19 µM); in test [4] it was 16 µg/mL (≈ 24.8 µM); in test [5] it was 65 µg/mL (≈ 101 µM); in test [6], 65 µg/mL (≈ 101 µM); in test [7], 2 µg/mL (≈ 3.1 µM). For the same compound, the MIC was 130 µg/mL (≈ 201 µM) in [9] and 4 µg/mL (≈ 6.19 µM) in [10]. Further, the IC50 in [2] was 4 µg/mL (≈ 6.19 µM). In addition, the “MIC - P. aeruginosa (1051575): content” value in [8] turned out to be 2 µg/mL.
Regarding `CC(C)NC(=O)CC[C@@H](C)[C@H]1CCC2C3CCC4C[C@@H](NCCCNCCCNCCCN)CC[C@]4(C)C3C[C@H](O)[C@@]21C` (stereo partly drawn) [Compound (1), 3β-norspermino-N-isopropyldeoxycholamide], the MIC in [1] worked out at 0.5 µg/mL (≈ 0.828 µM); in test [3] it was 4 µg/mL (≈ 6.62 µM); in test [4] it was 8 µg/mL (≈ 13.2 µM); in test [5], 8 µg/mL (≈ 13.2 µM); in [6], 8 µg/mL (≈ 13.2 µM); in test [7] it was 8 µg/mL (≈ 13.2 µM). The values for the MIC in test [9] and in test [10] were 8 µg/mL (≈ 13.2 µM) and 2 µg/mL (≈ 3.31 µM), respectively. Moreover, the IC50 turned out to be 0.5 µg/mL (≈ 0.828 µM) in test [2], 42 µg/mL (≈ 69.5 µM) in test [11] (setting [12]) and 33 µg/mL (≈ 54.6 µM) in [11] (setting [13]). In test [8], the “MIC - P. aeruginosa (1051575): content” value is 1 µg/mL.
`CC(C)NC(=O)CC[C@@H](C)[C@H]1CCC2C3C(CC[C@@]21C)[C@@]1(C)CC[C@H](NCCCNCCCCNCCCN)CC1C[C@H]3O` (stereo partly drawn) [Compound (32), 3β-spermino-N-isopropylchenodeoxycholamide]: the MIC in [1] stood at 0.5 µg/mL (≈ 0.809 µM); in test [3], 7 µg/mL (≈ 11.3 µM); in test [4] it was 31 µg/mL (≈ 50.2 µM); in test [5], 15 µg/mL (≈ 24.3 µM); in [6], 15 µg/mL (≈ 24.3 µM); in test [7], 7 µg/mL (≈ 11.3 µM). Further, the results for the MIC in test [9] and in [10] were 30 µg/mL (≈ 48.5 µM) and 2 µg/mL (≈ 3.24 µM), respectively. Moreover, the IC50 amounted to 2 µg/mL (≈ 3.24 µM) in test [2], 34 µg/mL (≈ 55 µM) in test [11] (setting [12]) and 13 µg/mL (≈ 21 µM) in test [11] (setting [13]). The “MIC - P. aeruginosa (1051575): content” value in test [8] was determined as 1 µg/mL.
For the compound `CCN(CC)C(=O)CC[C@@H](C)[C@H]1CCC2C3C(CC[C@@]21C)[C@@]1(C)CC[C@H](NCCCNCCCCNCCCN)CC1C[C@H]3O` (stereo partly drawn) [Compound (34), 3β-spermino-N,N-diethylchenodeoxycholamide], the MIC in [1] is 2 µg/mL (≈ 3.16 µM); in test [3], 4 µg/mL (≈ 6.33 µM); in [4], 8 µg/mL (≈ 12.7 µM); in test [5] it was 8 µg/mL (≈ 12.7 µM); in [6], 16 µg/mL (≈ 25.3 µM); in [7], 2 µg/mL (≈ 3.16 µM). The MIC stood at 16 µg/mL (≈ 25.3 µM) in test [9] and 4 µg/mL (≈ 6.33 µM) in test [10]. The IC50 in [2] amounted to 0.5 µg/mL (≈ 0.791 µM); in test [11] (setting [12]) it was 50 µg/mL (≈ 79.1 µM); in [11] (setting [13]) it was 50 µg/mL (≈ 79.1 µM). Moreover, the “MIC - P. aeruginosa (1051575): content” value in test [8] is 2 µg/mL.
